Patent US9365522B2, “Pyrazole amide derivative” (AMGEN INC., priority 2015, dated 2016)

What follows are compounds tested against T1, human RORγ-LBD (Homo sapiens, UniProt P51449) (assay: ROR gamma coactivator peptide recruitment Alphascreen assay (RORγ-LBD binding to GRIP1 coactivator peptide)). Details: 5 nM human RORγ-LBD, 30 nM 7-β-hydroxycholesterol, 50 nM biotinylated GRIP1 coactivator peptide, overnight incubation at room temperature; read-out: result (pIC50, RORγ coactivator peptide recruitment Alphascreen assay) (converted).
T1 construct: made in house; host or cells: E. coli (BL-21)
T1 sequence (P51449 262-518): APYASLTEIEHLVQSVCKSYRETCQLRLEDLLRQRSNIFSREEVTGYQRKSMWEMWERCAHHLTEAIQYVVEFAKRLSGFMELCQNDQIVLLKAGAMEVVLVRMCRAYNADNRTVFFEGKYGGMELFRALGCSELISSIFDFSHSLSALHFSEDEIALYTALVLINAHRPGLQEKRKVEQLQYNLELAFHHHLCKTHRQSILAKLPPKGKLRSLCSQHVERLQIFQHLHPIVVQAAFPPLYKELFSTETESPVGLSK
Assay type: biochemical
Summary of the method: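 His/Flag-tagged human RORγ-LBD (aa 262-518, E. coli-expressed, 5 nM) with agonist 7-β-hydroxycholesterol (30 nM) and biotinylated GRIP1 LXXLL peptide (50 nM) in HEPES pH 7.4 buffer, 2.5% DMSO. Compound 1-in-2 dilutions; Alphascreen bead signal read after overnight incubation at room temperature; pIC50 calculated.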

Row | IC50 [nM] | SMILES
1 | 2.45 | CC1(C)[C@@H]2C[C@H](N(CC(=O)c3c(Cl)cncc3Cl)C(=O)c3cnn([C@H]4CC[C@](C)(C(=O)O)CC4)c3C(F)(F)F)C[C@@H]21 [Example 558, trans-4-(4-((2-(3,5-dichloro-4-pyridinyl)-2-oxoethyl)((1R,3r,5S)-6,6-dimethylbicyclo[3.1.0]hex-3-yl)carbamoyl)-5-(trifluoromethyl)-1H-pyrazol-1-yl)-1-methylcyclohexanecarboxylic acid]
2 | 5.01 | CC(C)(C)CN(CC(=O)c1c(Cl)cncc1Cl)C(=O)c1cnn([C@@H]2CC[C@]3(C(=O)O)CCC[C@@H]3C2)c1C(F)(F)F [Example 871]
3 | 4.79 | CC1C[C@@H](n2ncc(C(=O)N(CC(=O)c3c(Cl)cncc3Cl)CC(C)(C)C)c2C(F)(F)F)CC[C@]1(C)C(=O)O (stereo in doubt) [Example 861, (1S,2S,4S)-4-(4-((2-(3,5-dichloro-4-pyridinyl)-2-oxoethyl)(2,2-dimethylpropyl)carbamoyl)-5-(trifluoromethyl)-1H-pyrazol-1-yl)-1,2-dimethylcyclohexanecarboxylic acid]
4 | 195 | CC(C)(C)CN(CC(=O)c1c(Cl)cncc1Cl)C(=O)c1cnn([C@H]2CC[C@@H](CS(C)(=O)=O)CC2)c1C(F)(F)F [Example 841, N-(2-(3,5-dichloro-4-pyridinyl)-2-oxoethyl)-N-(2,2-dimethylpropyl)-1-(cis-4-((methylsulfonyl)methyl)cyclohexyl)-5-(trifluoromethyl)-1H-pyrazole-4-carboxamide]
5 | 74.1 | C[C@]1(C(=O)O)CC[C@H](n2ncc(C(=O)N(CC(=O)c3c(Cl)cncc3Cl)CC3CC(F)(F)C3)c2C(F)(F)F)CC1 [Example 594, trans-4-(4-((2-(3,5-dichloro-4-pyridinyl)-2-oxoethyl)((3,3-difluorocyclobutyl)methyl)carbamoyl)-5-(trifluoromethyl)-1H-pyrazol-1-yl)-1-methylcyclohexanecarboxylic acid]
6 | 3.89 | C[C@@H]1C[C@H](n2ncc(C(=O)N(CC(=O)c3c(Cl)cncc3Cl)CC(C)(C)C(F)(F)F)c2C(F)(F)F)CC[C@H]1C(=O)O [Example 878, (1R,2R,4R)-4-(4-((2-(3,5-dichloro-4-pyridinyl)-2-oxoethyl)(3,3,3-trifluoro-2,2-dimethylpropyl)carbamoyl)-5-(trifluoromethyl)-1H-pyrazol-1-yl)-2-methylcyclohexanecarboxylic acid]
7 | 58.9 | C[C@H]1CC[C@H](CN(CC(=O)c2c(Cl)cncc2Cl)C(=O)c2cnn([C@H]3CC[C@](C)(C(=O)O)CC3)c2C(F)(F)F)O1 [Example 705, trans-4-(4-((2-(3,5-dichloro-4-pyridinyl)-2-oxoethyl)(((2R,5S)-5-methyltetrahydro-2-furanyl)methyl)carbamoyl)-5-(trifluoromethyl)-1H-pyrazol-1-yl)-1-methylcyclohexanecarboxylic acid]
8 | 3.72 | CC(C)(C)CN(CC(=O)c1c(Cl)cncc1Cl)C(=O)c1cnn([C@H]2C[C@]3(C[C@H](C(=O)O)C3)C2)c1C(F)(F)F (single isomer, unassigned) [Example 837]

The remaining lines, values behind:

Row | SMILES | IC50 [nM]
9 | Cc1cc(C)c(C(=O)CN(C(=O)c2cnn([C@H]3CC[C@](C)(C(=O)O)CC3)c2C(F)(F)F)[C@H]2C[C@@H]3[C@H](C2)C3(C)C)c(Cl)n1 [Example 757, trans-4-(4-((2-(2-chloro-4,6-dimethyl-3-pyridinyl)-2-oxoethyl)((1R,3r,5S)-6,6-dimethylbicyclo[3.1.0]hex-3-yl)carbamoyl)-5-(trifluoromethyl)-1H-pyrazol-1-yl)-1-methylcyclohexanecarboxylic acid] | 7.94
10 | O=C(c1cnn([C@H]2CC[C@H](C(=O)O)CC2)c1C(F)(F)F)N(CCc1ccc2cc[nH]c2c1)Cc1ccc(Cl)cc1 [Example 503, trans-4-(4-((4-chlorobenzyl)(2-(1H-indol-6-yl)ethyl)carbamoyl)-5-(trifluoromethyl)-1H-pyrazol-1-yl)cyclohexanecarboxylic acid] | 355
11 | CC(C)[C@H]1C[C@H](Cc2c(Cl)cncc2Cl)N(C(=O)c2cnn([C@H]3CC[C@](C)(C(=O)O)CC3)c2C(F)(F)F)C1 [Example 747, trans-4-(4-(((2R,4R)-2-((3,5-dichloro-4-pyridinyl)methyl)-4-(2-propanyl)-1-pyrrolidinyl)carbonyl)-5-(trifluoromethyl)-1H-pyrazol-1-yl)-1-methylcyclohexanecarboxylic acid] | 3.98
12 | COc1ncc(Cl)c(CCN(CC(C)(C)C)C(=O)c2cnn([C@H]3CC[C@H](C(=O)O)[C@H](C)C3)c2C(F)(F)F)c1Cl [Example 887, (1S,2R,4S)-4-(4-((2-(3,5-dichloro-2-methoxy-4-pyridinyl)ethyl)(2,2-dimethylpropyl)carbamoyl)-5-(trifluoromethyl)-1H-pyrazol-1-yl)-2-methylcyclohexanecarboxylic acid] | 16.2
13 | CC1(C)C[C@H](CN(CC(=O)c2c(Cl)cccc2Cl)C(=O)c2cnn([C@H]3CC[C@](C)(C(=O)O)CC3)c2C(F)(F)F)O1 [Example 628, trans-4-(4-((2-(2,6-dichlorophenyl)-2-oxoethyl)(((2R)-4,4-dimethyl-2-oxetanyl)methyl)carbamoyl)-5-(trifluoromethyl)-1H-pyrazol-1-yl)-1-methylcyclohexanecarboxylic acid] | 26.9
14 | C[C@]1(CC(=O)O)CC[C@@H](n2ncc(C(=O)N(CC(=O)c3c(Cl)cncc3Cl)Cc3cc(F)cc(F)c3)c2C(F)(F)F)CC1 [Example 790, (cis-4-(4-((2-(3,5-dichloro-4-pyridinyl)-2-oxoethyl)(3,5-difluorobenzyl)carbamoyl)-5-(trifluoromethyl)-1H-pyrazol-1-yl)-1-methylcyclohexyl)acetic acid] | 34.7
15 | Cc1cc(Cl)c(C(=O)CN(CC2CCC2)C(=O)c2cnn([C@H]3CC[C@](C)(C(=O)O)CC3)c2C(F)(F)F)c(Cl)c1 [Example 733, trans-4-(4-((cyclobutylmethyl)(2-(2,6-dichloro-4-methylphenyl)-2-oxoethyl)carbamoyl)-5-(trifluoromethyl)-1H-pyrazol-1-yl)-1-methylcyclohexanecarboxylic acid] | 2.51
16 | CC1(CN(CCc2c(Cl)cncc2Cl)C(=O)c2cnn([C@H]3CC[C@H](C(=O)O)CC3)c2C(F)(F)F)CCCCC1 [Example 549, trans-4-(4-((2-(3,5-dichloro-4-pyridinyl)ethyl)((1-methylcyclohexyl)methyl)carbamoyl)-5-(trifluoromethyl)-1H-pyrazol-1-yl)cyclohexanecarboxylic acid] | 1.74
17 | Cc1cc(Cl)c(CCN(CC2CCCCC2)C(=O)c2cnn([C@H]3CC[C@](C)(C(=O)O)CC3)c2C(F)(F)F)c(Cl)c1 [Example 514, trans-4-(4-((cyclohexylmethyl)(2-(2,6-dichloro-4-methylphenyl)ethyl)carbamoyl)-5-(trifluoromethyl)-1H-pyrazol-1-yl)-1-methylcyclohexanecarboxylic acid] | 1.91
18 | COc1ncc(Cl)c(CCN(CC(C)(C)C)C(=O)c2cnn([C@H]3CC[C@](C)(C(=O)O)CC3)c2C(F)(F)F)c1Cl [Example 872, trans-4-(4-((2-(3,5-dichloro-2-methoxy-4-pyridinyl)ethyl)(2,2-dimethylpropyl)carbamoyl)-5-(trifluoromethyl)-1H-pyrazol-1-yl)-1-methylcyclohexanecarboxylic acid] | 97.7
